Source: ChEMBL document CHEMBL1201862, “PubChem BioAssay data set” (2004)
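Each compound was tested at five concentrations against cells in 96-well plates for 48 hours. GI50 = concentration required for 50% inhibition of growth.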 The source made the active and inactive calls. Cut-off read from the data, not from the text of the source: active = GI50 up to about 1.1 µM and inactive = higher.

What was measured:
Test in all cases: inhibition of tumour cell growth, NCI panel, 48 h
OVCAR-4 = test system: OVCAR-4
CAKI-1 = test system: CAKI-1
SN12C = test system: SN12C
HT-29 = test system: HT-29
SF-295 = test system: SF-295
RPMI-8226 = test system: RPMI-8226
HCT-116 = test system: HCT-116
NCI-H522 = test system: NCI-H522
OVCAR-8 = test system: OVCAR-8
U-251 = test system: U-251
OVCAR-5 = test system: OVCAR-5
HCC 2998 = test system: HCC 2998
MDA-N = test system: MDA-N
HOP-62 = test system: HOP-62
SNB-19 = test system: SNB-19
SF-539 = test system: SF-539
NCI/ADR-RES = test system: NCI/ADR-RES
SK-MEL-5 = test system: SK-MEL-5
A549 = test system: A549
COLO 205 = test system: COLO 205

Measured: GI50

COc1c2c(c3c(c1OC)c(=O)c1ccccc1n3C)OCO2
inactive: OVCAR-4 76.2 µM | CAKI-1 > 100 µM | SN12C > 100 µM | HT-29 > 100 µM | SF-295 > 100 µM | RPMI-8226 > 100 µM | HCT-116 > 100 µM | NCI-H522 > 100 µM | OVCAR-8 > 100 µM | U-251 > 100 µM | OVCAR-5 > 100 µM | HCC 2998 > 100 µM | MDA-N > 100 µM | HOP-62 > 100 µM | SNB-19 > 100 µM | SF-539 > 100 µM | NCI/ADR-RES > 100 µM | SK-MEL-5 > 100 µM | A549 > 100 µM | COLO 205 > 100 µM

O=C(Nc1ccccc1)OC1OC(COC(=O)c2ccccc2)C(OC(=O)c2ccccc2)C1OS(=O)(=O)c1ccc([N+](=O)[O-])cc1 (stereo not given)
inactive: OVCAR-4 > 100 µM | CAKI-1 > 100 µM | SN12C > 100 µM | HT-29 > 100 µM | SF-295 > 100 µM | RPMI-8226 > 100 µM | HCT-116 > 100 µM | NCI-H522 40.3 µM | OVCAR-8 > 100 µM | U-251 > 100 µM | OVCAR-5 > 100 µM | HCC 2998 > 100 µM | MDA-N > 100 µM | HOP-62 > 100 µM | SNB-19 > 100 µM | SF-539 > 100 µM | NCI/ADR-RES > 100 µM | SK-MEL-5 > 100 µM | A549 > 100 µM | COLO 205 > 100 µM

CN(C)CCOc1ccc(-c2c(Oc3ccc(Cl)cc3)c(=O)oc3ccccc23)cc1
inactive: OVCAR-4 9.68 µM | CAKI-1 12.9 µM | SN12C 13.7 µM | HT-29 > 20.5 µM | SF-295 5.36 µM | RPMI-8226 8.43 µM | HCT-116 3.82 µM | NCI-H522 8.75 µM | OVCAR-8 > 24.5 µM | U-251 3.64 µM | OVCAR-5 15.8 µM | HCC 2998 3.15 µM | MDA-N 2.61 µM | HOP-62 21.9 µM | SNB-19 16.9 µM | SF-539 9.84 µM | NCI/ADR-RES > 35.1 µM | SK-MEL-5 2.01 µM | A549 4.97 µM | COLO 205 3.61 µM

O/N=C1\CSc2ccccc2C1
inactive: OVCAR-4 > 100 µM | CAKI-1 90.2 µM | SN12C > 100 µM | HT-29 > 100 µM | SF-295 > 100 µM | RPMI-8226 > 100 µM | HCT-116 > 100 µM | NCI-H522 > 100 µM | OVCAR-8 > 100 µM | U-251 > 100 µM | OVCAR-5 > 100 µM | HCC 2998 > 100 µM | MDA-N > 100 µM | HOP-62 > 100 µM | SNB-19 > 100 µM | SF-539 > 100 µM | NCI/ADR-RES > 100 µM | SK-MEL-5 > 100 µM | A549 > 100 µM | COLO 205 > 100 µM

CCOC(=O)C(=Cn1c(=S)[nH]c2ccc([N+](=O)[O-])cc21)C(=O)OCC
inactive: OVCAR-4 > 100 µM | CAKI-1 > 100 µM | SN12C > 100 µM | HT-29 > 100 µM | SF-295 > 100 µM | RPMI-8226 > 100 µM | HCT-116 > 100 µM | NCI-H522 > 100 µM | OVCAR-8 > 100 µM | U-251 > 100 µM | OVCAR-5 > 100 µM | HCC 2998 > 100 µM | MDA-N > 100 µM | HOP-62 > 100 µM | SNB-19 > 100 µM | SF-539 > 100 µM | NCI/ADR-RES > 100 µM | SK-MEL-5 > 100 µM | A549 > 100 µM | COLO 205 > 100 µM
